According to patent US8053577B2, “Derivatives of 5,9-methanocycloocta[b]pyridin-2-(1H)-one, their preparation and use as analgesics” (priority 2006, dated 2011):

What was measured:
[1] = Acute toxicity (LD50) in mice; settings: mouse, in vivo, oral administration
Source text: In view of the above-described problems, this invention relates to a series of analgesic 5,9-methanocycloocta[b]pyridin-2(H)-one derivatives.
The compounds of Formula I release huperzine A after p.o. administration. The amount of huperzine A released in artificial gastric fluid at various time intervals after administration of (5R,9R,11E)-5-(3-phenylprop-2-en-1-ylideneamino)-11-ethylidene-5,6,9,10-tetrahydro-7-methyl-5,9-methanocycloocta[b]pyridin-2(1H)-one is listed in Table 2. […] Accordingly, (5R,9R,11E)-5-(3-phenylprop-2-en-1-ylideneamino)-11-ethylidene-5,6,9,10-tetrahydro-7-methyl-5,9-methanocycloocta[b]pyridin-2(1H)-one is a pro-drug of huperzine A, and releases huperzine A in a sustained fashion. Sustained release of huperzine A can well explain lower toxicity of compounds of Formula I compared with Huperzine A (see Table 1).

mice = experiment: Analgesic effect of intragastric administration on mice measured with hot-plate test; assay type: in vivo, ICR mice; settings: x ± s, n = 10; for pain-threshold after administration / pain-threshold before administration: time course; for pain-threshold before administration / pain threshold before administration: baseline; for pain threshold after administration / pain threshold before administration: Table 3 screening; for pain threshold after administration: 1 hour; for pain threshold before administration: group dosed 0.6 mg/kg intragastric
Protocol: The analgesic effect with a single dose of the compounds represented by Formula I is preliminarily screened at single time point through hot-plate test, with fortanodyn and aspirin as positive controls. All of the compounds are administered intragastrically.
On the basis of preliminary screening results, several representative compounds were selected to test their analgesic duration, and a part of the results is listed in Table 4. The results illustrate that the analgesic duration of most compounds is longer than 2 hours after a single oral administration, and that some of the compounds have analgesic duration lasting longer than 4 hours.
Furthermore, the dose-effect relationship on an analgesic model of two compounds was tested and the results are shown in Table 5.
Analgesic effect of intragastric administration on mice measured with hot-plate test
Female ICR mice, weight 20+2 g, were purchased from Department of Laboratory Animal Science, Beijing University, animal license number: SCXK 2002-0001.
A) Samples: samples were prepared as mixtures with 0.9% NaCl solution for intragastric administration to mice.
B) Fortanodyn: 30 mg/pill (TianJin LiSheng Pharmaceutical Co. Ltd, lot number: 0201001), 1.5 mg/mL solution was prepared with 0.9% NaCl solution for intragastric administration to mice.
1) Hot-plate test on mice was employed. A thermostatic water bath was adjusted at 55±0.5° C., the bottom of metal plates contacted water surface and used as stimuli after heating. The time span(s) from the point when the mouse was placed onto the hot-plate to the time when the mouse started to lick its metapedes was determined as its pain threshold, which was recorded by stopwatch. Female mice with a weight of 20±2 g were used. The pain threshold of every mouse was measured twice before administration, and the qualified mice are the ones whose average pain threshold was less than 30 seconds.
The qualified mice were randomly grouped with 10 mice in each group. The pain threshold before administration was determined as the basic pain threshold. To the medication administration team, drugs of different dose were given through intragastric administration, whereas to the control group, 0.9% NaCl solution was given. The administration volume was 0.2 mL for every 10 g body weight. The pain threshold of each group was measured at 1 hour after administration.
After administration the pain threshold of each group at different time was measured. The experimental data was statistically treated with t-test using SPSS10 statistics software.

`C/C=C1\C2C=C(C)CC1(/N=C/C=C/c1cccc3ccccc13)c1ccc(=O)[nH]c1C2` [Example 23, (5R,9R,11E)-5-(3-(naphthalen-1-yl)prop-2-en-1-ylideneamino)-11-ethylidene-5,6,9,10-1,7-dimethyl-5,9-methanocycloocta[b]pyridin-2(1H)-one] gave an LD50 [1] of 43.2 mg/kg, a pain-threshold after administration (mice; 0.84 mg/kg intragastric, 30 min) of 23.3 ± 7.45 s and a pain-threshold after administration (mice; 0.84 mg/kg intragastric, 60 min) of 28.1 ± 10.15 s. The pain-threshold after administration (mice; 0.84 mg/kg intragastric, 120 min) was 14.9 ± 5.02 s, the pain-threshold after administration (mice; 0.84 mg/kg intragastric, 180 min) was 13.7 ± 2.98 s and the pain-threshold before administration (mice; group dosed 0.84 mg/kg intragastric) was 12.3 ± 3.86 s.
`C/C=C1\[C@H]2C=C(C)C[C@]1(N)c1ccc(=O)[nH]c1C2` [Example 1, (5R,9R,11E)-5-amino-11-ethylidene-5,6,9,10-tetrahydro-7-methyl-5,9-methanocycloocta[b]pyridin-2(1H)-one, reference compound] showed an LD50 [1] of 3.8 mg/kg.
With `C/C=C1\[C@H]2C=C(C)C[C@]1(/N=C/C=C/c1ccccc1)c1ccc(=O)[nH]c1C2` [Example 2, (5R,9R,11E)-5-(3-phenylprop-2-en-1-ylideneamino)-11-ethylidene-5,6,9,10-tetrahydro-7-methyl-5,9-methanocycloocta[b]pyridin-2(1H)-one] the LD50 [1] was 26.5 mg/kg, the pain-threshold after administration (mice; 0.73 mg/kg intragastric, 30 min) was 34.0 ± 11.42 s and the pain-threshold after administration (mice; 0.73 mg/kg intragastric, 60 min) was 36.5 ± 10.91 s. For the same molecule, the pain-threshold after administration (mice; 0.73 mg/kg intragastric, 120 min) was 29.0 ± 7.83 s, the pain-threshold after administration (mice; 0.73 mg/kg intragastric, 180 min) was 24.0 ± 5.44 s and the pain-threshold after administration (mice; 0.73 mg/kg intragastric, 240 min) was 18.3 ± 5.31 s.
For `C/C=C1\[C@H]2C=C(C)C[C@]1(/N=C/C=C/C=C/C=C/c1ccccc1)c1ccc(=O)[nH]c1C2` [Example 9, (5R,9R,11E)-5-(7-phenylhepta-2,4,6-trien-1-ylideneamino)-11-ethylidene-5,6,9,10-tetrahydro-7-methyl-5,9-methanocycloocta[b]pyridin-2(1H)-one], the “pain threshold after administration” value (mice; 0.6 mg/kg intragastric) was 25.8 ± 4.35 s and the “pain threshold before administration” value (mice) was 12.4 ± 2.58 s.
With `C/C=C1\[C@H]2C=C(C)C[C@]1(/N=C/C=C/c1ccccc1C)c1ccc(=O)[nH]c1C2` [Example 5, (5R,9R,11E)-5-(3-(2-methylphenyl)prop-2-en-1-ylideneamino)-11-ethylidene-5,6,9,10-tetrahydro-7-methyl-5,9-methanocycloocta[b]pyridin-2(1H)-one] the “pain threshold after administration” value (mice; 0.6 mg/kg intragastric) was 27.6 ± 6.22 s and the “pain threshold before administration” value (mice) was 12.8 ± 3.12 s.
For `CC(=O)Oc1ccccc1C(=O)O` [Aspirin, reference compound], the “pain threshold after administration” value (mice; 100 mg/kg intragastric) was 18.2 ± 3.71 s, the pain-threshold after administration (mice; 100 mg/kg intragastric, 30 min) was 18.1 ± 5.40 s and the pain-threshold after administration (mice; 100 mg/kg intragastric, 60 min) was 18.0 ± 3.80 s. It also gave a pain-threshold after administration (mice; 100 mg/kg intragastric, 120 min) of 14.0 ± 3.63 s and a pain-threshold after administration (mice; 100 mg/kg intragastric, 180 min) of 14.3 ± 3.62 s.
For `C/C=C1\[C@H]2C=C(C)C[C@]1(/N=C/C=C/c1ccc(OC)cc1)c1ccc(=O)[nH]c1C2` [Example 17, (5R,9R,11E)-5-(3-(4-methoxylphenyl)prop-2-en-1-ylideneamino)-11-ethylidene-5,6,9,10-tetrahydro-7-methyl-5,9-methanocycloocta[b]pyridin-2(1H)-one], the “pain threshold after administration” value (mice; 0.6 mg/kg intragastric) was 24.6 ± 5.46 s and the “pain threshold before administration” value (mice) was 12.2 ± 2.14 s.
With `C/C=C1\[C@H]2C=C(C)C[C@]1(/N=C/C=C/c1ccccc1OC)c1ccc(=O)[nH]c1C2` [Example 18, (5R,9R,11E)-5-(3-(2-methoxylphenyl)prop-2-en-1-ylideneamino)-11-ethylidene-5,6,9,10-tetrahydro-7-methyl-5,9-methanocycloocta[b]pyridin-2(1H)-one] the “pain threshold after administration” value (mice; 0.6 mg/kg intragastric) was 26.0 ± 5.01 s and the “pain threshold before administration” value (mice) was 13.0 ± 3.03 s.
Molecule `C/C=C1\[C@H]2C=C(C)C[C@]1(/N=C/C=C/c1ccc(Cl)cc1)c1ccc(=O)[nH]c1C2` [Example 14, (5R,9R,11E)-5-(3-(4-chlorophenyl)prop-2-en-1-ylideneamino)-11-ethylidene-5,6,9,10-tetrahydro-7-methyl-5,9-methanocycloocta[b]pyridin-2(1H)-one] has an LD50 [1] of 35.6 mg/kg, a pain-threshold after administration (mice; 0.81 mg/kg intragastric, 30 min) of 47.9 ± 12.95 s and a pain-threshold after administration (mice; 0.81 mg/kg intragastric, 60 min) of 45.9 ± 15.42 s. For the same molecule, the pain-threshold after administration (mice; 0.81 mg/kg intragastric, 120 min) was 31.0 ± 12.04 s, the pain-threshold after administration (mice; 0.81 mg/kg intragastric, 180 min) was 25.1 ± 8.10 s and the pain-threshold after administration (mice; 0.81 mg/kg intragastric, 240 min) was 26.2 ± 9.69 s. For the same molecule, the pain-threshold before administration (mice; group dosed 0.81 mg/kg intragastric) was 12.6 ± 4.25 s.
In the case of `C/C=C1\[C@H]2C=C(C)C[C@]1(/N=C/C=C/c1cccc(Br)c1)c1ccc(=O)[nH]c1C2` [Example 11, (5R,9R,11E)-5-(3-(3-bromophenyl)prop-2-en-1-ylideneamino)-11-ethylidene-5,6,9,10-tetrahydro-7-methyl-5,9-methanocycloocta[b]pyridin-2(1H)-one], the “pain threshold after administration” value (mice; 0.6 mg/kg intragastric) is reported as 23.0 ± 4.98 s and the “pain threshold before administration” value (mice) is reported as 12.8 ± 3.12 s.
